We go through 17 molecules from US11718633B2, “Indole compounds, process for the preparation and use thereof” (priority 2018, dated 2023).

One data set has as its system Mtb. H37Rv. Put plainly: Antibacterial susceptibility testing, broth microdilution MIC. It counts as cell-based, Mycobacterium tuberculosis. The following applies: M. tuberculosis H37Rv ATCC 27294, 7 days, 37° C., no visible growth; for MIC: Mycobacterium tuberculosis, ATCC 27294 / H37Rv, 168 h, read-out: MIC against mycobacterium tuberculosis Mtb. H37Rv. (In general: Broth dilution looks for growth in wells or tubes with falling amounts of substance.)

Data set [1] deals with TB aerosol lung infection model. The conditions noted are these: in vivo; cited from earlier work.
Data set [2] concerns drug-sensitive Mycobacterium tuberculosis strains. The conditions noted are these: drug-sensitive M. tuberculosis; cited from earlier work.
The next data set is described as follows: physchem. The following applies: kinetic from dmso stock.
The nature of data set [3]: In vitro solubility in buffer at different pH (HPLC). The conditions noted are these: for solubility at 5 min: kinetic from dmso stock.
Setting [4] is: pH 1.2, simulated gastric fluid.

≈ marks a conversion by molar mass, not a printed value. Bounds are passed on as bounds.

For orientation: MIC means the lowest concentration that inhibits growth of the organism. Consider `C[Si]1(C)CCC(NC(=O)c2cc3c(Cl)cc(Cl)cc3[nH]2)CC1` [Compound (e), 4,6-dichloro-N-(1,1-dimethylsilinan-4-yl)-1H-indole-2-carboxamide], for which, in the data set on Mtb. H37Rv, the MIC worked out at 0.03 µg/mL (≈ 0.0844 µM).
Still for that read-out and setting: for `C[Si]1(C)CCC(NC(=O)c2cc3ccccc3[nH]2)CC1` [Compound (b), N-(1,1-dimethylsilinan-4-yl)-1H-indole-2-carboxamide] the value was 0.03 µg/mL (≈ 0.105 µM); for `C[Si]1(C)CCN(C(=O)c2cc3c(F)cc(F)cc3[nH]2)CC1` [Compound (k), (4,6-difluoro-1H-indol-2-yl)(4,4-dimethyl-1,4-azasilinan-1-yl)methanone], 32 µg/mL (≈ 104 µM).
Consider `C[C@@H]1[C@H]2C[C@@H](C[C@H]1NC(=O)c1cc3c(F)cc(F)cc3[nH]1)C2(C)C` [4,6-difluoro-N-((1R,2R,3R,5S)-2,6,6-trimethylbicyclo[3.1.1]heptan-3-yl)-1H-indole-2-carboxamide], for which the “activity in the TB aerosol lung infection model (in words)” value in data set [1] is “excellent activity”. Moreover, in data set [2], the MIC was 0.012 µM (≈ 0.00399 µg/mL) and the SI is given as not below 16000.
A word on the solubility: it is the concentration that dissolves in the medium under given conditions. Consider `CC1(C)CCN(NC(=O)c2cc3c(Cl)cc(Cl)cc3[nH]2)CC1` [Compound (h), 4,6-dichloro-N-(4,4-dimethylpiperidin-1-yl)-1H-indole-2-carboxamide], for which the solubility at 5 min in “physchem” (setting [4]) is 41.1 µM (≈ 14 µg/mL); in the data set “physchem” (pH 2.2, aqueous buffer), 30 µM (≈ 10.2 µg/mL); in “physchem” (pH 4.5, aqueous buffer), 8.6 µM (≈ 2.93 µg/mL); in “physchem” (pH 7.4, aqueous buffer) it was 6.32 µM (≈ 2.15 µg/mL); in the data set “physchem” (pH 10.2, aqueous buffer) it was 8.67 µM (≈ 2.95 µg/mL).
Regarding `C[Si]1(C)CCN(NC(=O)c2cc3ccccc3[nH]2)CC1` [Compound (c), N-(4,4-dimethyl-1,4-azasilinan-1-yl)-1H-indole-2-carboxamide], the minimum inhibitory concentration (MIC) in the data set on Mtb. H37Rv was determined as 2 µg/mL (≈ 6.96 µM).
In the case of `C[Si]1(C)CCN(NC(=O)c2cc3c(Cl)cc(Cl)cc3[nH]2)CC1` [Compound (f), 4,6-dichloro-N-(4,4-dimethyl-1,4-azasilinan-1-yl)-1H-indole-2-carboxamide], the MIC in the data set on Mtb. H37Rv stood at 0.03 µg/mL (≈ 0.0842 µM). In data set [3], the “aqueous solubility at the acidic pH (in words)” value (“aqueous solubility” for short) is listed as “good aqueous solubility”. Further, the solubility at 5 min is 40.4 µM (≈ 14.4 µg/mL) in data set [3] (setting [4]); 26.3 µM (≈ 9.37 µg/mL) in data set [3] (pH 2.2, aqueous buffer); 2.57 µM (≈ 0.916 µg/mL) in data set [3] (pH 4.5, aqueous buffer); 2.57 µM (≈ 0.916 µg/mL) in data set [3] (pH 7.4, aqueous buffer); 2.7 µM (≈ 0.962 µg/mL) in data set [3] (pH 10.2, aqueous buffer).
Turning to `CC1(C)CCN(NC(=O)c2cc3c(Cl)cc(Cl)cc3[nH]2)CC1.Cl` [Compound (n), 4,6-dichloro-N-(4,4-dimethylpiperidin-1-yl)-1H-indole-2-carboxamide hydrochloride], the solubility at 5 min in “physchem” (setting [4]) was 42.6 µM; in “physchem” (pH 2.2, aqueous buffer) it was 26.2 µM; in the data set “physchem” (pH 4.5, aqueous buffer), 7.24 µM; in the data set “physchem” (pH 7.4, aqueous buffer) it was 10.6 µM; in “physchem” (pH 10.2, aqueous buffer), 9.89 µM.
Turning to `C[Si]1(C)CCN(C(=O)c2cc3ccccc3[nH]2)CC1` [Compound (d), (4,4-dimethyl-1,4-azasilinan-1-yl)(1H-indol-2-yl)methanone], the MIC with Mtb. H37Rv worked out at 32 µg/mL (≈ 117 µM).
`CC1(C)CCC(NC(=O)c2cc3c(Cl)cc(Cl)cc3[nH]2)CC1` [NITD 304, reference compound]: the “MIC against mycobacterium tuberculosis Mtb. H37Rv” value with Mtb. H37Rv was found to be 0.06 µg/mL (≈ 0.177 µM). In addition, the “Solubility in DMSO (standard solution)” value in data set [3] (DMSO @ 10 μM Concentration) is “Insoluble in DMSO @ 10 μM Concentration”.
As to `C[Si]1(C)CCN(NC(=O)c2cc3c(Cl)cc(Cl)cc3[nH]2)CC1.Cl` [Compound (m), 4,6-dichloro-N-(4,4-dimethyl-1,4-azasilinan-1-yl)-1H-indole-2-carboxamide hydrochloride], the “aqueous solubility” value in data set [3] was “good aqueous solubility”. The solubility at 5 min in data set [3] (setting [4]) was 38.6 µM; in data set [3] (pH 2.2, aqueous buffer), 28.4 µM; in data set [3] (pH 4.5, aqueous buffer), 2.55 µM; in data set [3] (pH 7.4, aqueous buffer), 2.73 µM; in data set [3] (pH 10.2, aqueous buffer) it was 2.46 µM.
Take `CC1(C)CCC(NC(=O)c2cc3ccccc3[nH]2)CC1` [Compound (a), N-(4,4-dimethylcyclohexyl)-1H-indole-2-carboxamide]: in the data set with Mtb. H37Rv, the MIC turned out to be 0.06 µg/mL (≈ 0.222 µM).
On the same count and under the same terms, for `C[Si]1(C)CCN(C(=O)c2cc3c(Cl)cc(Cl)cc3[nH]2)CC1` [Compound (g), (4,6-dichloro-1H-indol-2-yl)(4,4-dimethyl-1,4-azasilinan-1-yl)methanone] the value was 16 µg/mL (≈ 46.9 µM).
With `C[Si]1(C)CCC(NC(=O)c2cc3c(F)cc(F)cc3[nH]2)CC1` [Compound (i), N-(1,1-dimethylsilinan-4-yl)-4,6-difluoro-1H-indole-2-carboxamide], the MIC with Mtb. H37Rv was determined as 0.03 µg/mL (≈ 0.093 µM). Moreover, the concentration in solution in data set [3] (pH 10.2, aqueous buffer) (solubility at 5 min) was 9.03 µM (≈ 2.91 µg/mL).
In the case of `CC1(C)CCC(NC(=O)c2cc3c(F)cc(F)cc3[nH]2)CC1` [NITD 349, reference compound], the “MIC against mycobacterium tuberculosis Mtb. H37Rv” value in the data set with Mtb. H37Rv amounted to 0.03 µg/mL (≈ 0.0979 µM). In addition, in data set [3] (buffer pH 1.2), the “Solubility pH 1.2” value turned out to be 0.24 μM. Further, the “Solubility pH 2.2” value in data set [3] (buffer pH 2.2) amounted to 0.29 μM. The “Solubility pH 4.5” value in data set [3] (buffer pH 4.5) is 0.15 μM. In addition, in data set [3] (buffer pH 7.4), the “Solubility pH 7.4” value came out at 0.24 μM. For the same molecule, in data set [3] (buffer pH 10.2), the “Solubility pH 10.2” value was 7.30 μM.
Regarding `C[Si]1(C)CCN(NC(=O)c2cc3c(F)cc(F)cc3[nH]2)CC1` [Compound (j), N-(4,4-dimethyl-1,4-azasilinan-1-yl)-4,6-difluoro-1H-indole-2-carboxamide], in the data set on Mtb. H37Rv, the minimal inhibitory concentration (MIC) worked out at 0.125 µg/mL (≈ 0.386 µM). The “aqueous solubility” value in data set [3] is listed as “good aqueous solubility”. Further, the solubility at 5 min in data set [3] (setting [4]) was 49.7 µM (≈ 16.1 µg/mL); in data set [3] (pH 2.2, aqueous buffer), 31.3 µM (≈ 10.1 µg/mL); in data set [3] (pH 4.5, aqueous buffer), 1.01 µM (≈ 0.327 µg/mL); in data set [3] (pH 7.4, aqueous buffer), 1 µM (≈ 0.323 µg/mL); in data set [3] (pH 10.2, aqueous buffer), 1.1 µM (≈ 0.356 µg/mL).
As to `CC1(C)CCN(NC(=O)c2cc3c(F)cc(F)cc3[nH]2)CC1` [Compound (l), N-(4,4-dimethylpiperidin-1-yl)-4,6-difluoro-1H-indole-2-carboxamide], the solubility at 5 min is 49.6 µM (≈ 15.3 µg/mL) in the data set “physchem” (setting [4]); 46.4 µM (≈ 14.3 µg/mL) in the data set “physchem” (pH 2.2, aqueous buffer); 17.3 µM (≈ 5.31 µg/mL) in the data set “physchem” (pH 4.5, aqueous buffer); 29.4 µM (≈ 9.04 µg/mL) in “physchem” (pH 7.4, aqueous buffer); 21.4 µM (≈ 6.57 µg/mL) in the data set “physchem” (pH 10.2, aqueous buffer).
